Results published in PMC9847679, “The anti-breast cancer stem cell properties of gold(I)-non-steroidal anti-inflammatory drug complexes” (Chemical Science, 2022).

Test system: HMLER cells
Experiment: Monolayer cytotoxicity (MTT assay), HMLER cells
Format: cell-based, human
Details: 72 h incubation, MTT
Excerpt: Cell Lines and Cell Culture Conditions. The human mammary epithelial HMLER and HMLER-shEcad cell lines were kindly donated by Prof. R. A. Weinberg (Whitehead Institute, MIT). The human epithelial breast MCF10A, breast adenocarcinoma MDA-MB-231 and MDA-MB-468, murine epithelial breast 4T1, and embryonic kidney HEK 293 cell lines were acquired from American Type Culture Collection (ATCC, Manassas, VA, USA).
HMLER, HMLER-shEcad, and MCF10A cells were maintained in Mammary Epithelial Cell Growth Medium (MEGM) with supplements and growth factors (BPE, hydrocortisone, hEGF, insulin, and gentamicin/amphotericin-B). MDA-MB-231, MDA-MB-468, 4T1, and HEK 293 cells were maintained in Dulbecco's Modified Eagle's Medium (DMEM) supplemented with fetal bovine serum (10 %) and penicillin/streptomycin (1 %). The cells were grown at 310 K in a humidified atmosphere containing 5% CO2.
Monolayer Cytotoxicity Studies. Exponentially growing cells were seeded at a density of approximately 5 × 10^3 cells per well in 96-well flat-bottomed microplates and allowed to attach for 24 h prior to addition of compounds. Various concentrations of the test compounds (0.0004-100 μM) were added and incubated for 72 h at 37 °C (total volume 200 μl). Stock solutions of the compounds were prepared as 10 mM DMSO solutions and diluted using cell […]
media. The final concentration of DMSO in each well was ≤1 %. After 72 h, 20 μl of MTT (4 mg mL-1 in PBS) was added to each well and the plates incubated for an additional 4 h at 37 °C. The media/MTT mixture was eliminated and DMSO (100 μl per well) was added to dissolve the formazan precipitates. The optical density was measured at 550 nm using a 96-well multiscanner autoreader. Absorbance values were normalised to (DMSO-containing) control wells and plotted as concentration of test compound versus % cell viability. IC50 values were interpolated from the resulting dose dependent curves. The reported IC50 values are the average of three independent experiments (n = 18). […]
After incubation for 16 […]
h, the fluorescence of the solutions was read at 590 nm (λex = 560 nm). Viable mammospheres reduce the amount of the oxidised TOX8 form (blue) and concurrently increase the amount of the fluorescent TOX8 intermediate (red), indicating the degree of mammosphere cytotoxicity caused by the test compound. […]
Cellular Uptake. To measure the cellular uptake of 1-3 about 1 million HMLER-shEcad cells were treated with 1-3 (0.25 μM) at 37 °C for 24 h. After incubation, the media was removed, the cells were washed with PBS (2 mL × 3) and harvested. The number of cells was counted at this stage, using a haemocytometer. This mitigates any cell death induced by 1-3 at the administered concentration and experimental cell loss. The cellular pellets were dissolved in 65% HNO3 (250 µL) overnight. A cellular pellet of HMLER-shEcad cells treated with 1 was also used to determine the gold content in the nuclear, cytoplasmic and membrane fractions. The Thermo Scientific NE-PER Nuclear and Cytoplasmic Extraction Kit was used to extract and separate the nuclear, cytoplasmic and membrane fractions. The fractions were dissolved in 65% HNO3 (250 µL final volume) overnight. All samples were diluted 17-fold with water and analysed using inductively coupled plasma mass spectrometry (ICP-MS, Thermo Scientific ICAP-Qc quadrupole ICP mass spectrometer). Gold levels are expressed as mass of Au (ng) per million cells. Results are presented as the mean of four determinations for each data point.
Intracellular ROS Assay. […]

## COc1ccc2c(c1)c(CC(=O)[O][Au][PH](c1ccccc1)(c1ccccc1)c1ccccc1)c(C)n2C(=O)c1ccc(Cl)cc1 [complex 1]
  IC50: 190 ± 10 nM
